Test results taken from patent publication US20190314353A1, “Pharmaceutical Compositions Comprising Alpelisib” (Novartis AG, priority 2014, published 2019).

Tests used:
[1] = system: PIK3CA-mutant or amplified tumor xenograft models; assay: In vivo antitumor activity in tumor xenograft models; conditions: xenograft models such as breast, head and neck, and ovarian cancers
Source text: (§1) (hereinafter, “Compound I”). […] As of Mar.

[2] = system: advanced solid malignancies carrying an alteration in the PIK3CA gene; assay: Phase I clinical trial, single agent treatment, radiologic response (RECIST 1.0); type: in vivo, human; conditions: out of 131 patients evaluable for radiologic response, as of Mar. 10, 2014
Source text: as §1

With `Cc1nc(NC(=O)N2CCC[C@H]2C(N)=O)sc1-c1ccnc(C(C)(C)C(F)(F)F)c1` [Compound I, (S)-Pyrrolidine-1,2-dicarboxylic acid 2-amide 1-({4-methyl-5-[2-(2,2,2-trifluoro-1,1-dimethyl-ethyl)-pyridin-4-yl]-thiazol-2-yl}-amide)] the “in vivo antitumor activity” value [1] was “dose-dependent antitumor activity”, the “patients with partial response to treatment” value ([2]; PIK3CA-altered solid tumors) was 15 patients and the “patients with stable disease” value [2] was 68 patients.
